Data on 83 compounds can be found in paper PMC12040169 (PLOS Biology, 2025).

A word on the viability: it is a read-out of living cells in per cent, often relative to untreated cells.

The data set is described as follows: in vitro. The following applies: human, hela cells, % viability.
As to `CCn1cc(CN2CCC(O)(c3ccc(C)cc3)CC2)cn1` [CBK282735], the viability at 28.5 h, 10 µM is 85.7%. As for `Cc1ccc(C2(O)CCN(Cc3cnn(C)c3C)CC2)cc1` [CBK282736], the figure is 96.5%. As for `Cc1ccccc1-n1nc(C)c(CN2CCC(O)C(C)C2)c1C` (centres unmarked) [CBK282739], the figure is 84.2%; as for `Cc1ccccc1C(=O)N1C2CCC1CC(O)(Cn1ccnc1C)C2` (centres unmarked) [CBK282740], 90.1%. Next, `CCn1cc(CN2C3CCC2CC(O)(c2ccc(F)cc2)C3)cn1` (centres unmarked) [CBK282741]: 77.3%; `C=Cn1cc(CN2C3CCC2CC(O)(c2ccc(F)cc2)C3)c(C)n1` (centres unmarked) [CBK282742]: 80.6%; `Cc1cc2c(cc1C)C(O)CC1(CCN(C(=O)C3CCCC3)CC1)O2` (centres unmarked) [CBK282743]: 81.5%. Take `COc1ccccc1C1(NCc2cnn(C)c2)CCCC1` [CBK282744]: the viability at 28.5 h, 10 µM stood at 97%. As for `CCCC(NC(=O)c1cccc(-n2cnnc2)c1)c1cccs1` (centres unmarked) [CBK282745], the figure is 102%; as for `Cc1ccc2c(CC(=O)N(C)CCN3CCCCC3)coc2c1` [CBK282747], 80.5%.

For `Cc1[nH]c2ccc(F)cc2c1CC(=O)N(C)CCN1CCCCC1` [CBK282748], the viability at 28.5 h, 10 µM worked out at 84.3%. As for `Cc1ccc2[nH]c(C)c(CC(=O)N(C)CCN3CCCCC3)c2c1` [CBK282749], the figure is 87.8%; as for `Cc1ccc(C2(O)CCN(Cc3cn(C)nc3C)CC2)cc1` [CBK282753], 107%; as for `CCn1ncc(CN2C3CCC2CC(O)(c2cccc(F)c2)C3)c1C` (centres unmarked) [CBK282754], 91.6%. As to `CCn1ncc(S(=O)(=O)N2CCCC(c3ccccc3)C2)c1C` (centres unmarked) [CBK282760], the viability at 28.5 h, 10 µM is 100%. As for `CCn1ncc(S(=O)(=O)Nc2ccc3c(c2)cc(C)n3C)c1C` [CBK282761], the figure is 95.6%.

For the compound `O=C(NC1(c2ccc(Cl)cc2)CC1)C1CCS(=O)(=O)C1` (centres unmarked) [CBK282765], the viability at 28.5 h, 10 µM worked out at 75.3%. As for `Cc1nn(C)cc1S(=O)(=O)NCC1(c2ccccc2)CCCC1` [CBK282766], the figure is 85.9%; as for `CCn1cc(S(=O)(=O)NC2(c3ccccc3)CCCC2)cn1` [CBK282767], 90.6%; as for `CCn1cc(S(=O)(=O)NCC2(c3ccccc3)CCCC2)cn1` [CBK282768], 97.2%. Consider `CN(C)CCN(Cc1cccnc1)C(=O)Cc1ccc2c(c1)CCC2` [CBK282770], for which the viability at 28.5 h, 10 µM was determined as 109%.

Regarding `Cc1cc(CNS(=O)(=O)N2CCCC2)c2[nH]c(C)c(C)c2c1` [CBK282772], the viability at 28.5 h, 10 µM was determined as 95.1%. Next, `Cc1cnc(C(=O)NC2(c3ccc(Cl)cc3)CCC2)cn1` [CBK282775]: 95.2%. Next, `NC(=O)Cn1cc(CNC2(c3ccccc3)CC2)c2ccccc21` [CBK282776]: 94.9%. For the compound `OCCN(Cc1ccncc1)CC1(c2ccc(Cl)cc2)CC1` [CBK282782], the viability at 28.5 h, 10 µM was determined as 90.7%. For the compound `Cc1nn(C)cc1S(=O)(=O)N1CCn2cccc2C1C(C)C` (centres unmarked) [CBK282787], the viability at 28.5 h, 10 µM is 99.8%. Take `Cc1nn(C)cc1S(=O)(=O)Nc1cccc(-c2ccc(F)cc2)c1` [CBK282788]: the viability at 28.5 h, 10 µM turned out to be 103%. On to `CCn1c(C)cc2cc(NS(=O)(=O)c3cn(C)nc3C)ccc21` [CBK282789], for which the viability at 28.5 h, 10 µM came out at 93.5%. Next, `CCC(CN1CCN(C)CC1)NC(=O)Cc1coc2cc(C)ccc12` (centres unmarked) [CBK282790]: 102%. With `Cc1nc2sccn2c1CN1CCC(O)(c2ccc(F)cc2)CC1` [CBK282792], the viability at 28.5 h, 10 µM worked out at 98.2%. As for `c1ccc(C2(CN3CCN(Cc4cccnc4)CC3)CC2)cc1` [CBK282793], the figure is 117%; as for `CCCOC1CCCN(Cc2cn(CC(N)=O)c3ccccc23)C1` (centres unmarked) [CBK282796], 105%.

Regarding `CCCOC1CCCN(Cc2c(C)n(CC(N)=O)c3ccccc23)C1` (centres unmarked) [CBK282797], the viability at 28.5 h, 10 µM is 99.2%. As for `CC(C)(CN1CCCC1)CN1CCC(O)(c2ccccc2F)CC1` [CBK282798], the viability at 28.5 h, 10 µM was 93.4%. Regarding `Cc1nc(CN2CCC(O)(c3ccccc3F)CC2)c2ccccn12` [CBK282799], the viability at 28.5 h, 10 µM came out at 98.1%. Regarding `Cc1nn(C)c(Cl)c1S(=O)(=O)NC1(c2ccc(F)cc2)CC1` [CBK282800], the viability at 28.5 h, 10 µM is 97.5%. As for `CCn1cc(S(=O)(=O)NC2(c3ccc(F)cc3)CC2)cn1` [CBK282801], the figure is 112%; as for `CN(CCO)C(=O)CCn1c(C(F)F)cc2cccnc21` [CBK282805], 91.9%. Next, `Cc1nc2sccn2c1CN1CCc2sccc2C1C` (centres unmarked) [CBK282807]: 92.4%; `OC1(c2ccccc2)CCN(Cc2cncn2Cc2ccccc2)C1` (centres unmarked) [CBK282809]: 110%; `CCC(CN1CCOCC1)NC(=O)Cc1ccc2c(c1)CCC2` (centres unmarked) [CBK282810]: 114%. Turning to `CCC(CN1CCOCC1)NC(=O)Cc1coc2cc(C)cc(C)c12` (centres unmarked) [CBK282812], the viability at 28.5 h, 10 µM is 103%. Consider `CCC(CN1CCOCC1)NC(=O)Cc1coc2c(C)c(C)ccc12` (centres unmarked) [CBK282813], for which the viability at 28.5 h, 10 µM is 82.1%. As for `COc1ccc(OC)c2[nH]c(C(=O)N3CCCC34CC=CC4)cc12` [CBK282814], the figure is 85.9%. Next, `Cc1cc(C)n2nc(C(=O)N3CCCC34CC=CC4)cc2n1` [CBK282815]: 88.7%. As for `CCn1cncc1CN1CCC(O)(c2ccccc2F)CC1` [CBK282817], the viability at 28.5 h, 10 µM was 112%.

As for `CCn1cc(S(=O)(=O)Nc2ccc3c(ccn3C)c2)c(C)n1` [CBK282818], the viability at 28.5 h, 10 µM is 84.2%. As for `Cc1cc2c(cc1C)C(=O)CC1(CCN(C(=O)c3ccco3)CC1)O2` [CBK282819], the figure is 96%; as for `CS(=O)(=O)N1CCC2(CC1)Cn1c(cc3ccccc31)C(=O)O2` [CBK282820], 87.1%; as for `O=C(Cc1ccccn1)NC(Cc1ccsc1)c1nccs1` (centres unmarked) [CBK282821], 85.7%. As for `Cc1nc(C)c(C(=O)NC(Cc2ccsc2)c2nccs2)s1` (centres unmarked) [CBK282822], the viability at 28.5 h, 10 µM worked out at 82.3%.

For the compound `Cc1cnn(CC(=O)NC(Cc2ccsc2)c2nccs2)c1` (centres unmarked) [CBK282825], the viability at 28.5 h, 10 µM is 105%. On to `CC(=O)N1CCC2(CC1)CC(O)c1cc(C)c(C)cc1O2` (centres unmarked) [CBK282826], for which the viability at 28.5 h, 10 µM was determined as 107%. As for `COc1ccc(C2(NCc3ccc(N4CCCC4=O)cc3)CC2)cc1` [CBK282834], the figure is 103%; as for `COc1ccc(C2(NCc3ccc4c(c3)n(C)c(=O)n4C)CC2)cc1` [CBK282836], 103%. With `Cc1cc2c(cc1C)C(O)CC1(CCN(C(=O)c3ccco3)CC1)O2` (centres unmarked) [CBK282839], the viability at 28.5 h, 10 µM is 84%. As to `Cc1ccc(N2CCCC2=O)cc1S(=O)(=O)NC1C2CCCCC21` (centres unmarked) [CBK282840], the viability at 28.5 h, 10 µM is 69%. For `O=C1CCCN1c1ccc(S(=O)(=O)NC2C3CCCCC32)cc1` (centres unmarked) [CBK282842], the viability at 28.5 h, 10 µM was found to be 101%. Next, `Cn1cc(C(=O)NCC(c2ccc(F)cc2)N2CCCC2)ccc1=O` (centres unmarked) [CBK282843]: 87.4%. With `CN(C)CCN(Cc1cccs1)Cc1cc(Cl)ccc1O` [CBK282847], the viability at 28.5 h, 10 µM came out at 86.2%. Next, `CC12CN(Cc3ccccc3)CC1NC(=O)c1ccccc1C2N` (centres unmarked) [CBK282850]: 99.5%.

On to `CCC(C)NC(=O)C1=CCN(S(C)(=O)=O)C1` (centres unmarked) [CBK282861], for which the viability at 28.5 h, 10 µM stood at 101%. `c1coc(C2N3CCC4(CC3)c3[nH]c5ccccc5c3CCN24)c1` (centres unmarked) [CBK282862]: the viability at 28.5 h, 10 µM amounted to 112%. Take `O=C1CC2(CCN(C(=O)C3CCCCC3)CC2)Oc2ccc(F)cc21` [CBK282863]: the viability at 28.5 h, 10 µM worked out at 74.6%. As for `C=CCn1c2cc(C)sc2c2cnn(CCC(C)=O)c(=O)c21` [CBK282868], the figure is 95.7%. Take `CCc1nn(CCC(C)O)c(=O)c2cc3sc(C)cc3n12` (centres unmarked) [CBK282869]: the viability at 28.5 h, 10 µM is 89.1%. Regarding `O=C1Oc2nc3ccccc3cc2CN1C1CC1` [CBK282870], the viability at 28.5 h, 10 µM stood at 87.9%. As for `O=C(CN1C(=O)N2CCN=C2c2ccc(Cl)cc21)NCC1CC1` [CBK282877], the figure is 94.2%; as for `Cc1cc(-c2cc(=O)n(Cc3ccccc3C)nc2-c2ccco2)on1` [CBK282878], 96.7%.

On to `Nc1cc(-c2ccco2)nn(Cc2c(Cl)cccc2Cl)c1=O` [CBK282880], for which the viability at 28.5 h, 10 µM stood at 112%. As for `Nc1cc(-c2ccco2)nn(Cc2c(F)cccc2Cl)c1=O` [CBK282881], the figure is 86.1%. As for `CC1Cc2cc(CCC(=O)N3CCCc4c(cnn4C)C3)ccc2O1` (centres unmarked) [CBK282882], the figure is 100%; as for `CCCc1ccc(C(=O)NCC(C)n2cncn2)o1` (centres unmarked) [CBK282883], 92.5%.

For `COc1ccc(CC(=O)NC2CC(C)(C)Cc3c2cnn3C)cc1` (centres unmarked) [CBK282886], the viability at 28.5 h, 10 µM turned out to be 99%.

For `Cc1cc2cc(C(F)(F)F)nc-2n(CC(=O)NC2CC2)c1` [CBK282888], the viability at 28.5 h, 10 µM was determined as 106%.

Regarding `CC(C)CC(=O)N1CCCC(n2c(=O)oc3ccc(Cl)cc32)C1` (centres unmarked) [CBK282891], the viability at 28.5 h, 10 µM stood at 89.3%.

As to `O=C(c1ccco1)N1CCCC(n2c(=O)oc3ccc(Cl)cc32)C1` (centres unmarked) [CBK282892], the viability at 28.5 h, 10 µM was 91.5%. In the case of `Cc1ccc2c(c1)C(=O)NCC1(CCN(C(=O)c3ccco3)CC1)O2` [CBK282894], the viability at 28.5 h, 10 µM was determined as 100%. Next, `C=CCNCc1cc2c(C)nn(-c3ccccc3)c2[nH]c1=O` [CBK282898]: 88.7%. Next, `CC(=O)N1CCc2sccc2C1c1ccccc1NC(=O)C1CC1` (centres unmarked) [CBK282903]: 95%; `COc1ccc(F)c(C2NC(=O)CCC2N)c1` (centres unmarked) [CBK282905]: 97.6%. Next, `CC(=O)N1CCc2sccc2C1c1ccc(NC(=O)C2CC2)cc1` (centres unmarked) [CBK282907]: 87.8%; `CC(C)n1cccc1CN[C@@H]1CCC(=O)N[C@H]1c1cccc(F)c1` [CBK282908]: 91.1%.
